Results as given in patent publication US8796289B2 (AbbVie Inc., priority 2011, dated 2014).

Target: GST-tagged-Wee1 kinase (Homo sapiens, UniProt P30291)
Assay: Wee1 time-resolved fluorescence equilibrium binding assay (displacement of Oregon Green-labeled ATP-competitive kinase probe)
Procedure: Wee1 kinase was assayed using a time-resolved fluorescence equilibrium binding assay monitoring displacement of a rapidly reversible Oregon Green-labeled ATP-competitive kinase probe (N-(2-(2-(2-(4-(4-(5-chloro-4-(2-(1-hydroxycyclobutyl)thiazol-5-yl)-1H-pyrrolo[2,3-b]pyridin-2-yl)phenyl)piperazin-1-yl)ethoxy)ethoxy)ethyl)-2′,7′-difluoro-3′,6′-dihydroxy-3-oxo-3H-spiro[isobenzofuran-1,9′-xanthene]-5-carboxamide) by competitive Wee1 inhibitors.

Sequence of GST-tagged-Wee1 kinase (P30291 whole entry): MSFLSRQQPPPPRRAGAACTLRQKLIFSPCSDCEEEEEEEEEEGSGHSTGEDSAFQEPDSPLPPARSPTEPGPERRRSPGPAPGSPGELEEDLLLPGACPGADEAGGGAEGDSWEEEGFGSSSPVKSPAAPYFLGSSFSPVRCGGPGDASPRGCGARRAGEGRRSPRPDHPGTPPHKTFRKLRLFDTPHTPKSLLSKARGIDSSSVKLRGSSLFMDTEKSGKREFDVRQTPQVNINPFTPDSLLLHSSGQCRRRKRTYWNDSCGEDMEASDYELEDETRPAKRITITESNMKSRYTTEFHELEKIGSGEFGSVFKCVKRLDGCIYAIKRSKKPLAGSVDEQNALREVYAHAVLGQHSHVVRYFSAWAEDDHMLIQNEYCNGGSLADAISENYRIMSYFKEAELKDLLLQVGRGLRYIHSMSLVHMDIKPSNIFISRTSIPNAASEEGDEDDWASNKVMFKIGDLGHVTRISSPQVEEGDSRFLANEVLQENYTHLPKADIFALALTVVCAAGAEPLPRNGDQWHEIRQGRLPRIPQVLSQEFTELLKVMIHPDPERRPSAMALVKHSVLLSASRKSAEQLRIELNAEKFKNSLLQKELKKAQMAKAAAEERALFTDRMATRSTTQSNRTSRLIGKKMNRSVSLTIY

| Compound | Ki [nM] |
| --- | --- |
| Cc1nn(-c2c(Cl)cccc2Cl)c(=O)c2cnc(Nc3cccc(N4CCCCC4)c3)nc12 [Example 504, 6-(2,6-dichlorophenyl)-8-methyl-2-{[3-(piperidin-1-yl)phenyl]amino}pyrimido[4,5-d]pyridazin-5(6H)-one] | 3.7 |
| Cc1nn(-c2c(Cl)cccc2Cl)c(=O)c2cnc(Nc3cccc(N4CCOCC4)c3)nc12 [Example 505, 6-(2,6-dichlorophenyl)-8-methyl-2-{[3-(morpholin-4-yl)phenyl]amino}pyrimido[4,5-d]pyridazin-5(6H)-one] | 2.7 |
| Cc1nn(-c2c(Cl)cccc2Cl)c(=O)c2cnc(Nc3cccc(N4CCNCC4)c3)nc12 [Example 506, 6-(2,6-dichlorophenyl)-8-methyl-2-{[3-(piperazin-1-yl)phenyl]amino}pyrimido[4,5-d]pyridazin-5(6H)-one] | 0.54 |
| Cc1nn(-c2c(Cl)cccc2Cl)c(=O)c2cnc(Nc3cccc(N4CCN(CCCCl)CC4)c3)nc12 [Example 507, 2-({3-[4-(3-chloropropyl)piperazin-1-yl]phenyl}amino)-6-(2,6-dichlorophenyl)-8-methylpyrimido[4,5-d]pyridazin-5(6H)-one] | 2.4 |
| Cc1nn(-c2c(Cl)cccc2Cl)c(=O)c2cnc(Nc3cccc(N4CCN(C5CCC5)CC4)c3)nc12 [Example 508, 2-{[3-(4-cyclobutylpiperazin-1-yl)phenyl]amino}-6-(2,6-dichlorophenyl)-8-methylpyrimido[4,5-d]pyridazin-5(6H)-one] | 2 |
| Cc1nn(-c2c(Cl)cccc2Cl)c(=O)c2cnc(Nc3cccc(N4CCN(C5CCOCC5)CC4)c3)nc12 [Example 509, 6-(2,6-dichlorophenyl)-8-methyl-2-({3-[4-(tetrahydro-2H-pyran-4-yl)piperazin-1-yl]phenyl}amino)pyrimido[4,5-d]pyridazin-5(6H)-one] | 1.2 |
| Cc1nn(-c2c(Cl)cccc2Cl)c(=O)c2cnc(Nc3cccc(N4CCN(CCCO)CC4)c3)nc12 [Example 510, 6-(2,6-dichlorophenyl)-2-({3-[4-(3-hydroxypropyl)piperazin-1-yl]phenyl}amino)-8-methylpyrimido[4,5-d]pyridazin-5(6H)-one] | 1.1 |
| Cc1nn(-c2c(Cl)cccc2Cl)c(=O)c2cnc(Nc3cccc(N4CCN(C)CC4)c3)nc12 [Example 511, 6-(2,6-dichlorophenyl)-8-methyl-2-{[3-(4-methylpiperazin-1-yl)phenyl]amino}pyrimido[4,5-d]pyridazin-5(6H)-one] | 0.46 |
| Cc1nn(-c2c(Cl)cccc2Cl)c(=O)c2cnc(Nc3cccc(N4CCN(C5COC5)CC4)c3)nc12 [Example 512, 6-(2,6-dichlorophenyl)-8-methyl-2-({3-[4-(oxetan-3-yl)piperazin-1-yl]phenyl}amino)pyrimido[4,5-d]pyridazin-5(6H)-one] | 1.4 |
| Cc1nn(-c2c(Cl)cccc2Cl)c(=O)c2cnc(Nc3cccc(NCCN4CCOCC4)c3)nc12 [Example 513, 6-(2,6-dichlorophenyl)-8-methyl-2-[(3-{[2-(morpholin-4-yl)ethyl]amino}phenyl)amino]pyrimido[4,5-d]pyridazin-5(6H)-one] | 1.1 |
| Cc1nn(-c2c(Cl)cccc2Cl)c(=O)c2cnc(Nc3cccc(N4CCN(CCCN(C)C)CC4)c3)nc12 [Example 515, 6-(2,6-dichlorophenyl)-2-[(3-{4-[3-(dimethylamino)propyl]piperazin-1-yl}phenyl)amino]-8-methylpyrimido[4,5-d]pyridazin-5(6H)-one] | 0.19 |
| Cc1nn(-c2c(Cl)cccc2Cl)c(=O)c2cnc(Nc3cccc(OC4CCN(C)CC4)c3)nc12 [Example 516, 6-(2,6-dichlorophenyl)-8-methyl-2-({3-[(1-methylpiperidin-4-yl)oxy]phenyl}amino)pyrimido[4,5-d]pyridazin-5(6H)-one] | 0.36 |
| Cc1nn(-c2c(Cl)cccc2Cl)c(=O)c2cnc(Nc3ccc(N4CCN(CCCN(C)C)CC4)cc3)nc12 [Example 517, 6-(2,6-dichlorophenyl)-2-[(4-{4-[3-(dimethylamino)propyl]piperazin-1-yl}phenyl)amino]-8-methylpyrimido[4,5-d]pyridazin-5(6H)-one] | 0.24 |
| Cc1nn(-c2ccccc2Cl)c(=O)c2cnc(Nc3ccc(N4CCN(CCCN(C)C)CC4)cc3)nc12 [Example 518, 6-(2-chlorophenyl)-2-[(4-{4-[3-(dimethylamino)propyl]piperazin-1-yl}phenyl)amino]-8-methylpyrimido[4,5-d]pyridazin-5(6H)-one] | 0.7 |

Other lines, results leading:

| Ki [nM] | Compound |
| --- | --- |
| 0.75 | Cc1nn(-c2c(Cl)cccc2Cl)c(=O)c2cnc(Nc3cccc(C(=O)N4CCC(N(C)C)CC4)c3)nc12 [Example 519, 6-(2,6-dichlorophenyl)-2-[(3-{[4-(dimethylamino)piperidin-1-yl]carbonyl}phenyl)amino]-8-methylpyrimido[4,5-d]pyridazin-5(6H)-one] |
| 0.45 | Cc1nn(-c2c(Cl)cccc2Cl)c(=O)c2cnc(Nc3cccc(C(=O)NC4CCC(N(C)C)CC4)c3)nc12 (stereo not shown) [Example 520, 3-{[6-(2,6-dichlorophenyl)-8-methyl-5-oxo-5,6-dihydropyrimido[4,5-d]pyridazin-2-yl]amino}-N-[4-(dimethylamino)cyclohexyl]benzamide] |
| 0.13 | Cc1nn(-c2c(Cl)cccc2Cl)c(=O)c2cnc(Nc3cccc(NC4CCN(C)CC4)c3)nc12 [Example 522, 6-(2,6-dichlorophenyl)-8-methyl-2-({3-[(1-methylpiperidin-4-yl)amino]phenyl}amino)pyrimido[4,5-d]pyridazin-5(6H)-one] |
| 0.5 | Cc1nn(-c2c(Cl)cccc2Cl)c(=O)c2cnc(Nc3cccc(C(=O)NC4CCN(C)CC4)c3)nc12 [Example 523, 3-{[6-(2,6-dichlorophenyl)-8-methyl-5-oxo-5,6-dihydropyrimido[4,5-d]pyridazin-2-yl]amino}-N-(1-methylpiperidin-4-yl)benzamide] |
| 0.3 | Cc1cccc(Cl)c1-n1nc(C)c2nc(Nc3ccc(NC4CCNCC4)cc3)ncc2c1=O [Example 524, 6-(2-chloro-6-methylphenyl)-8-methyl-2-{[4-(piperidin-4-ylamino)phenyl]amino}pyrimido[4,5-d]pyridazin-5(6H)-one] |
| 0.2 | Cc1nn(-c2c(Cl)cccc2Cl)c(=O)c2cnc(Nc3ccc(NC4CCNCC4)cc3)nc12 [Example 525, 6-(2,6-dichlorophenyl)-8-methyl-2-{[4-(piperidin-4-ylamino)phenyl]amino}pyrimido[4,5-d]pyridazin-5(6H)-one] |
| 0.48 | Cc1nn(-c2ccccc2Cl)c(=O)c2cnc(Nc3ccc(NC4CCNCC4)cc3)nc12 [Example 526, 6-(2-chlorophenyl)-8-methyl-2-{[4-(piperidin-4-ylamino)phenyl]amino}pyrimido[4,5-d]pyridazin-5(6H)-one] |
| 2.8 | Cc1nn(-c2c(Cl)cccc2Cl)c(=O)c2cnc(Nc3cccc(C(=O)N4CCN(CCO)CC4)c3)nc12 [Example 527, 6-(2,6-dichlorophenyl)-2-[(3-{[4-(2-hydroxyethyl)piperazin-1-yl]carbonyl}phenyl)amino]-8-methylpyrimido[4,5-d]pyridazin-5(6H)-one] |
| 2.4 | Cc1nn(-c2c(Cl)cccc2Cl)c(=O)c2cnc(Nc3cccc(C(=O)N4CCN(C)CC4)c3)nc12 [Example 528, 6-(2,6-dichlorophenyl)-8-methyl-2-({3-[(4-methylpiperazin-1-yl)carbonyl]phenyl}amino)pyrimido[4,5-d]pyridazin-5(6H)-one] |
| 9.4 | Cc1nn(-c2c(Cl)cccc2Cl)c(=O)c2cnc(Nc3cccc(C(=O)N4CCS(=O)(=O)CC4)c3)nc12 [Example 529, 6-(2,6-dichlorophenyl)-2-({3-[(1,1-dioxidothiomorpholin-4-yl)carbonyl]phenyl}amino)-8-methylpyrimido[4,5-d]pyridazin-5(6H)-one] |
| 0.3 | Cc1nn(-c2c(Cl)cccc2Cl)c(=O)c2cnc(Nc3cccc(C(=O)NC4CCNCC4)c3)nc12 [Example 530, 3-{[6-(2,6-dichlorophenyl)-8-methyl-5-oxo-5,6-dihydropyrimido[4,5-d]pyridazin-2-yl]amino}-N-(piperidin-4-yl)benzamide] |
